Measurements published in PMC7251097, “Aspartate/asparagine-β-hydroxylase: a high-throughput mass spectrometric assay for discovery of small molecule inhibitors” (Scientific Reports, 2020).
Structures can show the parent of a compound that is named as a salt. Where two headings read alike, the source gives them in different places.

Biological target: T1, His6-AspH315–758 (human aspartate/asparagine-β-hydroxylase, AspH) (Homo sapiens, UniProt Q12797)
T1 construct: N-Terminally His6-tagged human AspH315–758 (His6-AspH315–758) was produced in E. coli BL21 (DE3) cells; made in house; host or cells: E. coli BL21 (DE3), pET-28a(+) vector
T1 sequence (Q12797 315-758): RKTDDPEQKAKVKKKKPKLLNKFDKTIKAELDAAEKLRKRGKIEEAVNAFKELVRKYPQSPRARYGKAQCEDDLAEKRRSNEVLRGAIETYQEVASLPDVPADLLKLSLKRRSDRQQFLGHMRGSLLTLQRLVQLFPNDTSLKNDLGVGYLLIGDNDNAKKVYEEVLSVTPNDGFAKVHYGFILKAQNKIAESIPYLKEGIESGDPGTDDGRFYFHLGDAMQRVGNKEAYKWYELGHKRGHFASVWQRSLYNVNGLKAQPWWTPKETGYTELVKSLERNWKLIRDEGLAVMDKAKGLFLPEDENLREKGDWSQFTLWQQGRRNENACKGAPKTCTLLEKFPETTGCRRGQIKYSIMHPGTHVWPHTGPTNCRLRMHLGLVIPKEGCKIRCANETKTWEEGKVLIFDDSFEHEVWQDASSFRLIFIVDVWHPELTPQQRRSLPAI
Experiment: SPE-MS AspH inhibition assay (LOPAC screen at fixed 20 μM and IC50 dose-response), hydroxylation of cyclic peptide hFX-CP101–119
Assay type: biochemical
Details: for IC50: 50 nM His6-AspH315–758, 1.0 μM hFX-CP101–119, 3 μM 2OG, 2 μM Fe(II), 50 mM HEPES pH 7.5, 20 °C, mean ± SD, n = 2 (2,4-PDCA n = 10), read-out: IC50

[1] = LOPAC compound at fixed 20 uM, plate 1, normalised to DMSO and 2,4-PDCA controls
[2] = LOPAC compound at fixed 20 uM, substrate conversion, plate 1
[3] = LOPAC Plate 4, compound at 20 uM, substrate conversion
[4] = LOPAC compound at 20uM, plate 2, conversion of substrate peptide
[5] = LOPAC compound at 20uM, plate 2, normalised to DMSO and 2,4-PDCA controls
[6] = LOPAC Plate 4, compound at 20 uM, read-out: % inhibition
[7] = LOPAC compound at 20uM, conversion of substrate peptide
[8] = LOPAC Plate 4, compound at 20 uM
[9] = plate 5 (Pfitzer), test compounds at fixed 20 μM
[10] = plate 5 (Pfitzer), test compounds at fixed 20 μM, mean conversion DMSO 32.88

SMILES: Cc1cccc(-c2[nH]ncc2-c2ccc3ncccc3n2)n1 [RepSox]
- Plate 2 (% conversion): 40.48%
- Plate 2 (% inhibition) (20 µM): -13.51%

SMILES: COC(=O)[C@H]1[C@H]2C[C@@H]3c4[nH]c5cc(OC)ccc5c4CCN3C[C@H]2C[C@@H](OC(=O)c2cc(OC)c(OC)c(OC)c2)[C@@H]1OC [Reserpine]
- Plate 1 (% inhibition) [1]: -13.78%
- Plate 1 (% conversion) [2]: 40.50%

SMILES: Oc1ccc(/C=C/c2cc(O)cc(O)c2)cc1 [Resveratrol]
- % conversion [3]: 34.33%

SMILES: CC1=C(/C=C/C(C)=C/C=C/C(C)=C/C(=O)Nc2ccc(O)cc2)C(C)(C)CCC1 [Retinoic acid p-hydroxyanilide]
- Plate 2 (% conversion) [4]: 25.03%
- Plate 2 (% inhibition) [5]: 32.63%

SMILES: CC1=C(/C=C/C(C)=C/C=C/C(C)=C/C(=O)O)C(C)(C)CCC1 [Retinoic acid]
- % conversion [3]: 30.58%
- inhibition at 20 µM [6]: 17.2%

SMILES: NC(=O)c1ncn([C@@H]2O[C@H](CO)[C@@H](O)[C@H]2O)n1 [Ribavirin]
- % conversion [3]: 38.92%
- inhibition at 20 µM [6]: -7.18%

SMILES: C1COC(NC(C2CC2)C2CC2)=N1 [Rilmenidine hemifumarate]
- % conversion [3]: 24.79%

SMILES: Nc1nc2ccc(OC(F)(F)F)cc2s1 [Riluzole]
- % conversion [3]: 38.21%
- inhibition at 20 µM [6]: -5.09%

SMILES: Cc1nc2sccn2c(=O)c1CCN1CCC(=C(c2ccc(F)cc2)c2ccc(F)cc2)CC1 [Ritanserin]
- % conversion [3]: 37.56%

SMILES: CC(NCCc1ccc(O)cc1)C(O)c1ccc(O)cc1 (centres unmarked) [Ritodrine hydrochloride]
- % conversion [3]: 37.24%
- inhibition at 20 µM [6]: -2.24%

SMILES: CN(C)CCc1c[nH]c2ccc(Cn3cncn3)cc12.O=C(O)c1ccccc1 [Rizatriptan benzoate salt]
- Plate 3 (% conversion) [7]: 37.82%

SMILES: CNc1cc(NS(=O)(=O)c2ccc(N)cc2)nc(NC)n1.Cl.Cl [Ro 04-6790 dihydrochloride]
- % inhibition [8]: 35.85%
- % conversion [3]: 24.24%

SMILES: O=C(c1cc(O)c(O)c([N+](=O)[O-])c1)c1ccccc1F [Ro 41-0960, reference compound]
- % inhibition [8]: 97.80%
- % conversion [3]: 3.09%

SMILES: COc1ccc(C2CNC(=O)C2)cc1OC1CCCC1 (centres unmarked) [Rolipram]
- % conversion [3]: 37.72%
- inhibition at 20 µM [6]: -3.65%

SMILES: CCCN(CCC)CCc1cccc2c1CC(=O)N2 [Ropinirole hydrochloride]
- % conversion: 31.94%

SMILES: CC[C@H](CO)Nc1nc(NCc2ccccc2)c2ncn(C(C)C)c2n1 [Roscovitine]
- Plate 1 (% conversion): 40.73%
- Plate 1 (% inhibition): -14.45%

SMILES: C=C(C)[C@H]1Cc2c(ccc3c2O[C@@H]2COc4cc(OC)c(OC)cc4[C@@H]2C3=O)O1 [Rotenone]
- % conversion: 46.53%

SMILES: CC(=O)c1c(O)c(C)c(O)c(Cc2c(O)c3c(c(C(=O)/C=C/c4ccccc4)c2O)OC(C)(C)C=C3)c1O [Rottlerin]
- % conversion: 14.64%
- inhibition at 20 µM: 64%

SMILES: O=c1c2ccccc2nc2n1CCc1c-2[nH]c2ccccc12 [Rutaecarpine]
- % conversion [3]: 29.23%

SMILES: N.N.N.N.N.N.N.N.N.N.N.N.N.N.[Cl-].[Cl-].[Cl-].[Cl-].[Cl-].[Cl-].[O-2].[O-2].[Ru+3].[Ru+3].[Ru+4] [Ruthenium red]
- % inhibition [8]: -14.56%
- % conversion [3]: 41.44%

SMILES: CC(C)Cc1ccc([C@H](C)C(=O)O)cc1 [S(+)-Ibuprofen]
- Plate 3 (% conversion) [7]: 38.99%

SMILES: CC(C)NC[C@H](O)COc1ccc(CC(N)=O)cc1 [S(-)-Atenolol]
- Plate 1 (% inhibition) [1]: -5.71%
- Plate 1 (% conversion) [2]: 37.79%

SMILES: CC(C)(C)NC[C@H](O)COc1nsnc1N1CCOCC1.O=C(O)/C=C\C(=O)O [S(-)-Timolol maleate]
- % conversion [3]: 29.54%

SMILES: Brc1ccc([C@H]2CN3CCSC3=N2)cc1.O=C(O)C(=O)O [S(-)-p-Bromotetramisole oxalate]
- Plate 1 (% inhibition) [1]: 75.43%
- Plate 1 (% conversion) [2]: 10.54%

SMILES: O=[N+]([O-])c1ccc(CSc2ncnc3c2ncn3[C@@H]2O[C@H](CO)[C@@H](O)[C@H]2O)cc1 [S-(4-Nitrobenzyl)-6-thioinosine]
- Plate 3 (% conversion) [7]: 36.51%

SMILES: CNCC[C@H](Oc1ccc(C(F)(F)F)cc1)c1ccccc1.Cl [S-(+)-Fluoxetine hydrochloride]
- Plate 2 (% conversion): 45.11%
- Plate 2 (% inhibition) (20 µM): -27.34%

SMILES: C[C@@](Cc1ccc(O)c(O)c1)(NN)C(=O)O [S-(-)-Carbidopa]
- Plate 2 (% conversion) [4]: 7.52%
- Plate 2 (% inhibition) [5]: 84.92%

SMILES: [N-]=[N+]=Nc1ccc(C(=O)CSC[C@H](NC(=O)CC[C@H](N)C(=O)O)C(=O)NCC(=O)O)cc1 [S-(p-Azidophenacyl)glutathione]
- Plate 1 (% inhibition) [1]: -2.24%
- Plate 1 (% conversion) [2]: 36.62%

SMILES: CSC(=N)N.CSC(=N)N.O=S(=O)(O)O [S-Methylisothiourea hemisulfate]
- Plate 3 (% conversion) [7]: 35.95%

SMILES: N[C@@H](CCC(=O)N[C@@H](CSN=O)C(=O)NCC(=O)O)C(=O)O [S-Nitrosoglutathione]
- Plate 3 (% conversion) [7]: 32.88%

SMILES: Cc1nn(-c2ccccc2)c(C)c1/C=N/N1CCN(Cc2ccccc2)CC1 [SANT-1]
- Plate 2 (% conversion) [4]: 42.39%
- Plate 2 (% inhibition) [5]: -19.21%

SMILES: Cl.Cn1ccc2cc(NC(=O)Nc3cccnc3)ccc21 [SB 200646 hydrochloride]
- Plate 1 (% inhibition) [1]: -6.42%
- Plate 1 (% conversion) [2]: 38.03%

SMILES: Oc1ccc(-c2nc(-c3ccncc3)c(-c3ccc(F)cc3)[nH]2)cc1 [SB 202190]
- Plate 1 (% inhibition) [1]: -5.28%
- Plate 1 (% conversion) [2]: 37.64%

SMILES: Cc1cc(NC(=O)Nc2ccc3c(ccn3C)c2)sn1 [SB 204741]
- Plate 1 (% conversion): 37.70%
- Plate 1 (% inhibition): -5.45%

SMILES: CC#CCOC(=O)c1c(C)nc2sc3c(c2c1N)CCC(O)C3 (centres unmarked) [SB 205384]
- % conversion: 39.48%

SMILES: Cn1ccc2cc3c(cc21)CCN3C(=O)Nc1cccnc1 [SB 206553 hydrochloride]
- % conversion: 28.82%

SMILES: CC[C@H](NC(=O)c1c(C)c(-c2ccccc2)nc2ccccc12)c1ccccc1 [SB 222200]
- Plate 1 (% inhibition) [1]: -26.34%
- Plate 1 (% conversion) [2]: 44.72%

SMILES: Cc1cc2c(cc1Cl)N(C(=O)Nc1ccc(Oc3cccnc3C)nc1)CC2.Cl.Cl.O [SB 242084 dihydrochloride hydrate]
- Plate 3 (% conversion) [7]: 37.92%

SMILES: CC1CCN(CC[C@H]2CCCN2S(=O)(=O)c2cccc(O)c2)CC1.Cl [SB 269970 hydrochloride]
- % inhibition [8]: -11.63%
- % conversion [3]: 40.44%

SMILES: Cc1cc2c(cc1Cl)N(C(=O)Nc1cccc3ncccc13)CC2 [SB-215505]
- Plate 3 (% conversion) [7]: 42.68%

SMILES: COc1cccc(NC(=O)/C=C/c2ccc(Cl)cc2)c1 [SB-366791]
- % inhibition [8]: 0.24%
- % conversion [3]: 36.39%

SMILES: CC(=O)NNC(=O)N1Cc2ccccc2Oc2ccc(Cl)cc21 [SC 19220]
- % conversion [3]: 29.06%

SMILES: NS(=O)(=O)c1ccc(-n2nc(C(F)(F)F)cc2-c2ccc(Cl)cc2)cc1 [SC-236]
- Plate 3 (% conversion) [7]: 40.00%
- Plate 5 (% inhibition) [9]: -23.50%
- Plate 5 (% conversion) [10]: 44.31%

SMILES: N#CC(CCCN1CCN(/N=C/c2cccnc2)CC1)(c1ccccc1)c1ccccc1 [SC-26196]
- Plate 5 (% inhibition) [9]: 23.44%
- Plate 5 (% conversion) [10]: 28.34%

SMILES: O=C(CCSCc1ccco1)NNC(=O)N1Cc2ccccc2Oc2ccc(Cl)cc21 [SC-51322]
- % conversion [3]: 23.51%
- Plate 5 (% inhibition) [9]: 13.59%
- Plate 5 (% conversion) [10]: 31.69%

SMILES: COc1cc(N)c(Cl)cc1C(=O)NC[C@@H]1CCN2CCC[C@@H]12 [SC-53116]
- Plate 5 (% inhibition) [9]: 9.86%
- Plate 5 (% conversion) [10]: 32.96%

SMILES: CN(CCCOc1ccc(Cc2ccccc2)cc1)CCC(=O)O.Cl [SC-57461A]
- % conversion: 41.07%
- Plate 5 (% conversion): 38.96%
- Plate 5 (% inhibition): -7.77%
- % inhibition (20 µM): -13.47%

SMILES: CS(=O)(=O)c1ccc(-n2nc(C(F)(F)F)cc2-c2ccc(F)cc2)cc1 [SC-58125]
- Plate 3 (% conversion) [7]: 37.41%
- Plate 5 (% inhibition) [9]: 0.65%
- Plate 5 (% conversion) [10]: 36.09%

SMILES: Nc1nc2c(cnn2CCc2ccccc2)c2nc(-c3ccco3)nn12 [SCH 58261]
- % conversion [3]: 31.57%

SMILES: Cc1nc2c(OCc3ccccc3)cccn2c1CC#N [SCH-28080]
- Plate 2 (% conversion) [4]: 38.71%
- Plate 2 (% inhibition) [5]: -8.22%

SMILES: CN=c1nc(-c2ccccc2)n(-c2ccccc2)s1 [SCH-202676, reference compound]
- IC50 (listed as C00007): 0.51 ± 0.08 µM
- IC50: ~0.5 µM
- Inhibition at 20 µM [%] (AspH activity, fixed compound concentration 20 μM, initial LOPAC screen, 0.5%v/v DMSO): 100.6%
- % inhibition [8]: 100.56%
- % conversion [3]: 2.15%

SMILES: CCN(CC)CCOC(=O)c1cc(Cl)c(N)cc1OC.Cl [SDZ-205,557 hydrochloride]
- % inhibition [8]: -2.39%
- % conversion [3]: 37.29%

SMILES: Cc1ccc(O)c(N=Nc2ccccc2)n1 [SIB 1757]
- % conversion [3]: 30.83%
